Data reported in patent US20240277692A1, “1,2-DIHYDROQUINOLINE-2-ONES FOR THEIR USE IN THE TREATMENT OF LIMB-GIRDLE MUSCULAR DYSTROPHY” (CONSEJO SUPERIOR DE INVESTIGACIONES CIENTÍFICAS, priority 2021, published 2024).

Experiments:
Akt/mTOR pathway = experiment: Western blot of Akt/mTOR pathway proteins in human myotubes; type: cell-based
Method: (§1) To obtain primary myoblasts, muscle biopsies were processed and cultured in monolayer according to the method described by Askanas (Neurology, 1975, 25, 58-67). To isolate the pure population of myoblasts and CD56-negative cells (CD56-), the protocol described previously (Jaka et al., Expert Reviews in Molecular Medicine, 2017, 19, e2) was used, using immunomagnetic separation based on the early presence of the surface marker CD56 (Miltenyi Biotec, 130-050-401).
(§2) Myoblasts were cultured in proliferation medium (DMEM, M-199, Insulin, Glutamine and penicillin-streptomycin) with 10% FBS and growth factors at 37° C. in 5% CO2 air incubator. When myoblasts reached confluence, the FBS concentration was reduced to 2% and growth factors were removed from the medium, promoting fusion and production of myotubes.
(§3) VP0.7 was provided by Dr. Ana Martínez (from The Center for Biological Research, CSIC). It was administered at 1.2 μM, whereas LiCl (Sigma-Aldrich, L7026) was used for comparative purposes at a final concentration of 10 mM. VP0.7 and LiCl were administered at the above referred concentrations to myotubes at eight days of differentiation, and VP0.7 also to skin fibroblasts and to CD56-cells. Negative controls, in the case of VP0.7, were performed with DMSO (Fisher Scientific, BP-231). At 48 hours after drug administration, RNA and proteins were extracted.
(§4) Protein collection from muscle samples and cell cultures, as well as Western blot procedure, were performed as previously described (Jaka et al., Expert Reviews in Molecular Medicine, 2017, 19, e2).
Furthermore, downstream of the mTOR pathway, the p70S6K and RPS6 proteins were analysed. After administration of VP0.7, the expression of total p70S6K, its phosphorylation (Thr421/Ser424 and Thr389), as well as the levels of phosphorylation of the RPS6 protein (Ser235/Ser236) increased in the patient's sample. In the control, the effect observed after the treatments is very slight (FIG. 3B).
For comparative purposes, LiCl was also administered in control and patient's myotubes and the phosphorylation of p70S6K and RPS6 proteins were also tested. The results are depicted in FIG. 4.

FRBZ gene, β1D integrin = settings: LiCl treatment, cited from earlier work
GSK3β = settings: low dose, Whitley et al. 2020, cited from earlier work
Wnt pathway [1] = experiment: Western blot of Wnt pathway proteins in human myotubes after drug administration; type: cell-based; settings: for active β-catenin: myotubes
Method: as §1, §2, §3, §4
We proceeded to analyse the expression of the GSK3β protein, as well as its downstream effect on the Wnt pathway in myotubes from controls and patients after drug administration. […] As a control assay, lithium was administered and an increase in active β-catenin was verified (FIG. 2C).

GSK3 [2] = settings: low therapeutic dose 0.5 mM, Kurgan et al. 2019; cited from earlier work
integrin β1D and melusin = experiment: Western blot of costamere structural proteins in human myotubes; type: cell-based; settings: VP0.7 1.2 μM, 48 h
Method: as §3, §4
Likewise, the expression of some of the structural proteins that are part of the costamere, whose expression is altered in LGMDR1 patients, was analysed. After drug administration, an increase in integrin β1D and melusin was also observed (FIG. 2E).

Wnt pathway [3] = experiment: Western blot of Wnt pathway proteins in CD56- cells; type: cell-based, human; settings: VP0.7 1.2 μM, 48 h
Description: as §1, §3, §4

mTOR pathway [4] = experiment: Western blot of mTOR pathway protein in skin fibroblasts; type: cell-based, human; settings: VP0.7 1.2 μM, 48 h
Method: (§5) Skin fibroblasts from healthy controls and from LGMDR1 patients were provided by Dr. Ana Aiastui (Biodonostia Health Research Institute, Cell Culture and Histology Platform). Cells were cultured in Dulbecco's modified Eagle's medium (DMEM, Gibco, 41966-029) supplemented with 10% FBS (Gibco, 10270-106) and 1% penicillin-streptomycin (Gibco, 15140-122) at 37° C. in a 5% CO2 air incubator. Human fibroblasts were cultured at a density of 4×10^4 cells/ml.
as §3, §4

Wnt pathway [5] = experiment: Western blot of Wnt pathway proteins in skin fibroblasts; type: cell-based, human; settings: VP0.7 1.2 μM, 48 h
Method: as §5, §3, §4

mTOR pathway [6] = experiment: Western blot of mTOR pathway proteins in CD56- cells; type: cell-based, human; settings: VP0.7 1.2 μM, 48 h
Description: as §1, §3, §4

GSK3 [7] = biological target: GSK3 (Homo sapiens, UniProt P49841); settings: highly selective and allosteric modulator; Luna-Medina 2007, Palomo 2011; cited from earlier work
[8] = tested on: CAPN3, FOS, ANOS1 and ITGB1BP2 genes; experiment: Quantitative real-time PCR of deregulated genes in LGMDR1 myotubes; type: cell-based, human; settings: VP0.7 1.2 μM, 48 h
Method: as §3
RNA extraction from primary myoblast/myotubes was performed with an RNeasy Mini Kit (Qiagen). In the case of the muscle biopsies, which were snap frozen and stored at −80° C. until use, total RNA was obtained using an RNA-Plus Kit (QBiogene).
The isolated RNA was reverse-transcribed to first-strand complementary DNA (cDNA) in a final volume of 50 μl using a High Capacity cDNA Reverse Transcription Kit (Applied Biosystems), according to the manufacturer's instructions. The expression levels of CAPN3, FOS, ITGB1BP2, ANOS1 and GAPDH genes in the samples were assessed by real-time quantitative PCR with TaqMan probes (Table Il below) using the ‘CFX384 Real-Time PCR Detection System’ (Bio-Rad).
On the other hand, in previous studies we had already described that activating the Wnt pathway through the silencing of the FRZB gene or with treatment with lithium, the expression of some altered genes in the muscle of patients was recovered (Jaka et al., Expert Reviews in Molecular Medicine, 2017, 19, e2; Casas-Fraile et al., Orphanet Journal of Rare Diseases, 2020, 15(1), 119). Thus, their expression was analysed after administering VP0.7.

[9] = LiCl 10 mM, drug administration +, myotubes, control 09-23
[10] = LiCl 10 mM, drug administration +, myotubes, control 13-07
[11] = LiCl 10 mM, drug administration +, myotubes, patient 09-21
[12] = LiCl 10 mM, drug administration +, myotubes, patient 09-24
[13] = LiCl 10 mM, drug administration +, myotubes, patient 09-25
[14] = VP0.7 1.2 μM, 48 h, patient's myotubes
[15] = VP0.7 1.2 μM, 48 h, patient's sample, myotubes
[16] = VP0.7 1.2 μM, myotubes, control 13-05, relative to the same sample without treatment
[17] = VP0.7 1.2 μM, myotubes, patient 09-25, relative to the same sample without treatment

Chain of GSK3 (Homo sapiens, UniProt P49841) (P49841 whole entry): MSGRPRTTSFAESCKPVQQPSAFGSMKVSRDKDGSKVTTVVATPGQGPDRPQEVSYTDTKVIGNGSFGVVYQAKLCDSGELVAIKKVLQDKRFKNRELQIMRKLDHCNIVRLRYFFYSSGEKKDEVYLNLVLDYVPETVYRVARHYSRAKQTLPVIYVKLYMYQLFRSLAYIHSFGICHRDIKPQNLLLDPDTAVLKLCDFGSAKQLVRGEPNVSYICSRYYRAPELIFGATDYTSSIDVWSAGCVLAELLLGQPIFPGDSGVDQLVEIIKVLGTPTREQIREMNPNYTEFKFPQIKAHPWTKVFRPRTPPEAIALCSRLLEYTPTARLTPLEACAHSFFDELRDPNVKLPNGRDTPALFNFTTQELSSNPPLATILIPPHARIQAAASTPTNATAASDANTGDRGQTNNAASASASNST

[Cl-].[Li+] [LiCl, reference compound]
proteins involved in the mTOR pathway and their phosphorylation forms (Akt/mTOR pathway; LiCl 10 mM, 48 h, control and patient's myotubes): did not provide any increase
P-RPS6 (S235-S236) (Akt/mTOR pathway; [9]): 3.8
P-p70S6K (T421-S424) (Akt/mTOR pathway; [9]): 0.78
P-RPS6 (S235-S236) (Akt/mTOR pathway; [10]): 3
P-p70S6K (T421-S424) (Akt/mTOR pathway; [10]): 0.7
P-RPS6 (S235-S236) (Akt/mTOR pathway; [11]): 1.5
P-p70S6K (T421-S424) (Akt/mTOR pathway; [11]): 0.5
P-RPS6 (S235-S236) (Akt/mTOR pathway; [12]): 3
P-p70S6K (T421-S424) (Akt/mTOR pathway; [12]): 1.4
P-RPS6 (S235-S236) (Akt/mTOR pathway; [13]): 2.5
P-p70S6K (T421-S424) (Akt/mTOR pathway; [13]): 0.65
expression of the FRBZ gene (FRBZ gene, β1D integrin; Jaka et al. 2017): lower levels
β1D adult isoform of the integrin (FRBZ gene, β1D integrin; primary myotubes): higher levels
inhibition of GSK3β (GSK3β): effective in inhibiting
fatigue resistance in some muscles (GSK3β; via NFAT activation): enhances
active β-catenin (Wnt pathway [1]; LiCl 10 mM, 48 h, control assay): increase
inhibition of GSK3 (GSK3 [2]): inhibit
myoblast fusion (GSK3 [2]): augment

CCCCCCCCCCCC(=O)NNC(=O)c1c(O)c2ccccc2n(CC)c1=O [VP0.7, N′-dodecanoyl-1-ethyl-4-hydroxy-2-oxo-1,2-dihydroquinoline-3-carbohydrazide]
effect on p70S6K and RPS6 expression/phosphorylation (Akt/mTOR pathway; VP0.7 1.2 μM, 48 h, control myotubes): very slight
phosphorylation of mTOR (Ser2448) (Akt/mTOR pathway; [14]): significant increase
phosphorylation of mTOR (Ser2481) (Akt/mTOR pathway; [14]): significant increase
total mTOR (Akt/mTOR pathway; [14]): no significant changes
expression of total p70S6K (Akt/mTOR pathway; [15]): increased
p70S6K phosphorylation (Thr389) (Akt/mTOR pathway; [15]): increased
p70S6K phosphorylation (Thr421/Ser424) (Akt/mTOR pathway; [15]): increased
phosphorylation of the RPS6 protein (Ser235/Ser236) (Akt/mTOR pathway; [15]): increased
P-p70S6K (T421-S424) (Akt/mTOR pathway; VP0.7 1.2 μM, myotubes, control 13-05, protein expression value relative to the same sample without treatment): 1
P-RPS6 (S235-S236) (Akt/mTOR pathway; [16]): 1.1
P-p70S6K (T389) (Akt/mTOR pathway; [16]): 0.94
P-p70S6K (T421-S424) (Akt/mTOR pathway; VP0.7 1.2 μM, myotubes, patient 09-25, protein expression value relative to the same sample without treatment): 1.6
P-RPS6 (S235-S236) (Akt/mTOR pathway; [17]): 2.8
P-p70S6K (T389) (Akt/mTOR pathway; [17]): 1.6
integrin β1D (integrin β1D and melusin): increase
melusin (integrin β1D and melusin): increase
active form of β-catenin (Wnt pathway [3]): no significant alteration
amount of total β-catenin (Wnt pathway [3]): no significant alteration
phosphorylation of RPS6 (mTOR pathway [4]): very slight increase
total β-catenin expression (Wnt pathway [1]; VP0.7 1.2 μM, 48 h, myotubes day 8 of differentiation, controls and LGMDR1 patients): increase
active β-catenin (Wnt pathway [1]; VP0.7 1.2 μM, 48 h, controls and LGMDR1 patients): increase
inhibition of GSK3β kinase (Wnt pathway [1]; myotubes after drug administration): effective inhibition
active form of β-catenin (Wnt pathway [5]): did not show an increase
phosphorylation of GSK3β(Ser9) (Wnt pathway [5]): did not show an increase
β-catenin (Wnt pathway [5]): did not show an increase
mTOR (mTOR pathway [6]): no differences
phosphorylation of RPS6 (mTOR pathway [6]): no differences
phosphorylation of p70S6K (mTOR pathway [6]): no differences
inhibition of GSK3 (GSK3 [7]): reversibly inhibits
expression of ANOS1 [8]: increase
expression of CAPN3 [8]: increase
expression of FOS [8]: increase
expression of ITGB1BP2 [8]: increase
